Results: patent US6764996B1, “9a-azalides with antibacterial activity” (Abbott Laboratories, priority 1999, dated 2004)

Key:
Assay in all cases: In vitro antibacterial activity, agar dilution MIC
Type in all cases: cell-based
Candida albicans CCH 442 = settings: code TT: Candida albicans CCH 442; BHI agar, 35-37° C., 20 to 24 hours; unit assumed
Experimental: (§1) Representative compounds of the present invention were assayed in vitro for antibacterial activity as follows: Twelve petri dishes containing successive aqueous dilutions of the test compound mixed with 10 mL of sterilized Brain Heart Infusion (BHI) agar (Difco 0418-01-5) were prepared. Each plate was inoculated with 1:100 (or 1:10 for slow-growing strains, such as Micrococcus and Streptococcus) dilutions of up to 32 different microorganisms, using a Steers replicator block. The inoculated plates were incubated at 35-37° C. for 20 to 24 hours. In addition, a control plate, using BHI agar containing no test compound, was prepared and incubated at the beginning and end of each test.
(§2) An additional plate containing a compound having known susceptibility patterns for the organisms being tested and belonging to the same antibiotic class as the test compound was also prepared and incubated as a further control, as well as to provide test-to-test comparability. Erythromycin A was used for this purpose.
(§3) After incubation, each plate was visually inspected. The minimum inhibitory concentration (MIC) was defined as the lowest concentration of drug yielding no growth, a slight haze, or sparsely isolated colonies on the inoculum spot as compared to the growth control.

Escherichiacoli JUHL = settings: code QQ: Escherichiacoli JUHL; BHI agar, 35-37° C., 20 to 24 hours; unit assumed
Experimental: as §1, §2, §3

Escherichiacoli SS = settings: code RR: Escherichiacoli SS; BHI agar, 35-37° C., 20 to 24 hours; unit assumed
Experimental: as §1, §2, §3

[1] = test system: Haemophilislnfluenzae DILL AMP R; settings: code WW: Haemophilislnfluenzae DILL AMP R; BHI agar, 35-37° C., 20 to 24 hours; unit assumed
Experimental: as §1, §2, §3

[2] = test system: Micrococcusluteus ATCC 4698; settings: code PP: Micrococcusluteus ATCC 4698; BHI agar, 35-37° C., 20 to 24 hours; unit assumed
Experimental: as §1, §2, §3

[3] = test system: Mycobacterium smegmatis ATCC 114; settings: code UU: Mycobacterium smegmatis ATCC 114; BHI agar, 35-37° C., 20 to 24 hours; unit assumed
Experimental: as §1, §2, §3

[4] = test system: Nocardia Asteroides ATCC 99700; settings: code VV: Nocardia Asteroides ATCC 99700; BHI agar, 35-37° C., 20 to 24 hours; unit assumed
Experimental: as §1, §2, §3

[5] = test system: Staphylococcus aureus 1775; settings: code GG: Staphylococcus aureus 1775; BHI agar, 35-37° C., 20 to 24 hours; unit assumed
Experimental: as §1, §2, §3

[6] = test system: Staphylococcus aureus A-5177; settings: code BB: Staphylococcus aureus A-5177; BHI agar, 35-37° C., 20 to 24 hours; unit assumed
Experimental: as §1, §2, §3

[7] = test system: Staphylococcus aureus A-5278; settings: code CC: Staphylococcus aureus A-5278; BHI agar, 35-37° C., 20 to 24 hours; unit assumed
Experimental: as §1, §2, §3

[8] = test system: Staphylococcus aureus ATCC 6538P; settings: code AA: Staphylococcus aureus ATCC 6538P; BHI agar, 35-37° C., 20 to 24 hours; unit assumed
Experimental: as §1, §2, §3

[9] = test system: Staphylococcus aureus NCTC 10649M; settings: code EE: Staphylococcus aureus NCTC 10649M; BHI agar, 35-37° C., 20 to 24 hours; unit assumed
Experimental: as §1, §2, §3

[10] = test system: Staphylococcus epidermidis 3519; settings: code HH: Staphylococcus epidermidis 3519; BHI agar, 35-37° C., 20 to 24 hours; unit assumed
Experimental: as §1, §2, §3

[11] = test system: Streptococcus Pneumonia 5649; settings: code ZA: Streptococcus Pneumonia 5649; BHI agar, 35-37° C., 20 to 24 hours; unit assumed
Experimental: as §1, §2, §3

[12] = test system: Streptococcus Pneumonia ATCC 6303; settings: code XX: Streptococcus Pneumonia ATCC 6303; BHI agar, 35-37° C., 20 to 24 hours; unit assumed
Experimental: as §1, §2, §3

[13] = test system: Streptococcus Pneumonia GYR 1171; settings: code YY: Streptococcus Pneumonia GYR 1171; BHI agar, 35-37° C., 20 to 24 hours; unit assumed
Experimental: as §1, §2, §3

[14] = test system: Streptococcus agalactiae CMX 508; settings: code KK: Streptococcus agalactiae CMX 508; BHI agar, 35-37° C., 20 to 24 hours; unit assumed
Experimental: as §1, §2, §3

[15] = test system: Streptococcus bovis A-5169; settings: code JJ: Streptococcus bovis A-5169; BHI agar, 35-37° C., 20 to 24 hours; unit assumed
Experimental: as §1, §2, §3

[16] = test system: Streptococcus pyogenes 930; settings: code MM: Streptococcus pyogenes 930; BHI agar, 35-37° C., 20 to 24 hours; unit assumed
Experimental: as §1, §2, §3

[17] = test system: Streptococcus pyogenes EES61; settings: code LL: Streptococcus pyogenes EES61; BHI agar, 35-37° C., 20 to 24 hours; unit assumed
Experimental: as §1, §2, §3

[18] = test system: Streptococcus pyogenes PIU 2548; settings: code NN: Streptococcus pyogenes PIU 2548; BHI agar, 35-37° C., 20 to 24 hours; unit assumed
Experimental: as §1, §2, §3

[19] = test system: Streptococcus Pneumonia 5979; settings: code ZZ: Streptococcus Pneumonia 5979; BHI agar, 35-37° C., 20 to 24 hours; unit assumed
Experimental: as §1
An additional plate containing a compound having known susceptibility patterns for the organisms being tested and belonging to the same antibiotic class as the test compound was also prepared and incubated as a further control, as well as to provide test-to-test comparability.
as §3

| SMILES | Antibacterial Activity (MIC) (Candida albicans CCH 442) [µg/mL] | Antibacterial Activity (MIC) (Escherichiacoli JUHL) [µg/mL] | Antibacterial Activity (MIC) (Escherichiacoli SS) [µg/mL] | Antibacterial Activity (MIC) [1] [µg/mL] | Antibacterial Activity (MIC) [2] [µg/mL] | Antibacterial Activity (MIC) [3] [µg/mL] | Antibacterial Activity (MIC) [4] [µg/mL] | Antibacterial Activity (MIC) [5] [µg/mL] | Antibacterial Activity (MIC) [6] [µg/mL] | Antibacterial Activity (MIC) [7] [µg/mL] | Antibacterial Activity (MIC) [8] [µg/mL] | Antibacterial Activity (MIC) [9] [µg/mL] | Antibacterial Activity (MIC) [10] [µg/mL] | Antibacterial Activity (MIC) [11] [µg/mL] | Antibacterial Activity (MIC) [12] [µg/mL] | Antibacterial Activity (MIC) [13] [µg/mL] | Antibacterial Activity (MIC) [14] [µg/mL] | Antibacterial Activity (MIC) [15] [µg/mL] | Antibacterial Activity (MIC) [16] [µg/mL] | Antibacterial Activity (MIC) [17] [µg/mL] | further results |
| --- | --- | --- | --- | --- | --- | --- | --- | --- | --- | --- | --- | --- | --- | --- | --- | --- | --- | --- | --- | --- | --- |
| CCC1OC(=O)C(C)C(=O)C(C)C(OC2OC(C)CC(N(C)C)C2O)C(C)(OCC=Cc2cnc3ccccc3c2)CC(C)CN(C)C(C)C(O)C1(C)O (stereo not shown) [Example 5, Compound of formula (II): R^1 is —CH2CH═CH-(3-quinolinyl), R^2 and R^3 together are oxo, R^4 is hydrogen, R^5 is hydrogen, R^6 is methyl, R^8 is hydrogen] | > 100 | 50 | 0.78 | 4 | 0.39 | 6.2 | 0.1 | > 100 | 12.5 | > 100 | 0.2 | 0.39 | 0.2 | 8 | 0.06 | 0.03 | 0.05 | 0.02 | > 100 | 0.05 | Antibacterial Activity (MIC) [18]: 6.2 µg/mL; Antibacterial Activity (MIC) [19]: > 128 µg/mL |
| CC[C@H]1OC(=O)[C@H](C)[C@@H](O[C@H]2C[C@@](C)(OC)[C@@H](O)[C@H](C)O2)[C@H](C)[C@@H](O[C@@H]2O[C@H](C)C[C@H](N(C)C)[C@H]2O)[C@](C)(O)C[C@@H](C)C(=O)[C@H](C)[C@@H](O)[C@]1(C)O [Ery. A, Erythromycin A, reference compound] | > 100 | > 100 | 0.78 | 4 | 0.2 | 3.1 | 0.1 | > 100 | 3.1 | > 100 | 0.2 | 0.39 | 0.39 | 16 | 0.06 | 0.06 | 0.05 | 0.02 | > 100 | 0.05 | Antibacterial Activity (MIC) [18]: 6.2 µg/mL |
| CCC1OC(=O)C(C)C(=O)C(C)C(OC2OC(C)CC(N(C)C)C2O)C(C)(OCC=Cc2cnc3ccccc3c2)CC(C)CN(C)C(C)C2OC(=O)OC12C (stereo not shown) [Example 6, Compound of formula (II): R^1 is —CH2CH═CH-(3-quinolinyl), R^2 and R^3 together are oxo, R^4 and R^5 together are —C(O)—, R^6 is methyl, R^8 is hydrogen] | > 100 | 50 | 0.78 | 4 | 0.39 | 6.2 | 0.1 | > 100 | 12.5 | > 100 | 0.2 | 0.39 | 0.2 | 8 | 0.06 | 0.03 | 0.05 | 0.02 | > 100 | 0.05 | Antibacterial Activity (MIC) [18]: 6.2 µg/mL; Antibacterial Activity (MIC) [19]: > 128 µg/mL |
| C=CCOC1(C)CC(C)CNC(C)C(O)C(C)(O)C(CC)OC(=O)C(C)C(OC2CC(C)(OC)C(O)C(C)O2)C(C)C1OC1OC(C)CC(N(C)C)C1O (stereo not shown) [Example 2, Compound of formula (I): R^1 is —CH2CH═CH2, R^4 is hydrogen, R^5 is hydrogen, R^6 is hydrogen, R^7 is hydrogen, R^8 is hydrogen] | > 100 | 50 | 0.78 | 8 | 0.39 | 6.2 | 0.1 | > 100 | 12.5 | > 100 | 0.2 | 0.39 | 0.2 | 16 | 0.06 | 0.06 | 0.05 | 0.02 | > 100 | 0.05 | Antibacterial Activity (MIC) [18]: 6.2 µg/mL; Antibacterial Activity (MIC) [19]: > 128 µg/mL |
| C=CCOC1(C)CC(C)CN(C)C(C)C(O)C(C)(O)C(CC)OC(=O)C(C)C(OC2CC(C)(OC)C(O)C(C)O2)C(C)C1OC1OC(C)CC(N(C)C)C1O (stereo not shown) [Example 3, Compound of formula (I): R^1 is —CH2CH═CH2, R^4 is hydrogen, R^5 is hydrogen, R^6 is methyl, R^7 is hydrogen, R^8 is hydrogen] | > 100 | 50 | 0.39 | 8 | 0.39 | 6.2 | 0.1 | > 100 | 12.5 | > 100 | 0.2 | 0.39 | 0.39 | 8 | 0.06 | 0.06 | 0.1 | 0.05 | > 100 | 0.05 | Antibacterial Activity (MIC) [18]: 6.2 µg/mL; Antibacterial Activity (MIC) [19]: > 128 µg/mL |
